The values below come from US20230129034A1, “TREATMENT OF DISEASE WITH ESTERS OF SELECTIVE RXR AGONISTS” (Io Therapeutics, Inc., priority 2017, published 2023).

Assay [1] relates to experimental autoimmune encephalomyelitis (EAE) in C57BL/6 (B6) mice. As to the kind of experiment: EAE in C57BL/6 (B6) mice, MOG peptide induced. The settings on record: 50 µg i.p. every other day from day 7. The class given is in vivo. As to the method: Mice were also given 200 ng of pertussis toxin in PBS administered by inter-peritoneal (i.p.) injection on the same day as MOG emulsion injection (day 0) and 2 days later (day 2). […] Mice were scored using the following scale: 0 - Mice have no disease, 1 -Mice have distal limp tail or rear leg weakness (paresis), 1.5 - Mice have distal limp tail and rear leg weakness, 2 - Mice have complete limp tail and rear leg weakness, 2.5 - Mice have complete limp tail and weakness in both rear legs, 3 - Mice have complete limp tail and paralysis in both rear legs, 3.5 - Mice have complete limp tail, paralysis in both rear legs, and forelimb weakness. Mice receiving a score of 3.5 were immediately euthanized.

The subject of another assay is EAE in SJL mice. As to the kind of experiment: EAE in SJL mice, PLP peptide induced. The format is in vivo. The following applies: for symptoms of EAE in SJL mice: 50 µg i.p. every other day from day 7. The method, then: To determine whether a RXR agonist or an ester of a RXR agonist can attenuate multiple sclerosis, SJL mice were immunized to induce EAE by s.c. injection at the base of their spine with 200 µL of adjuvant containing 200 µg proteolipid proteins (139-151) (PLP peptide; Peptides International, Louisville, KY) and 400 µg of non-viable M. tuberculosis H37 desiccate emulsified in a mixture of incomplete Freund’s adjuvant and PBS. Mice were also given 150 ng of pertussis toxin in PBS i.p. on the same day as PLP emulsion injection and 2 days later. […] Mice were scored using the scale described in Example 6.

In assay [2] the test system is demyelinated caudal cerebellar peduncles of one year old rats. In words: Focal toxin (ethidium bromide) induced rat model of demyelination. The format is in vivo. The method, then:
The experiment uses rats of relatively advanced age (1 year) since such rats undergo remyelination in a less efficient manner, thereby providing data that are more relevant to the clinical treatment of human patients with multiple sclerosis or other demyelination disorders.
Focal demyelination is induced in one year old rats (approximately 300 g in weight) by injecting stereotactically 5 µl of ethidium bromide solution (0.01% vol/vol in saline) in a bilateral manner into the caudal cerebellar peduncles (CCP). […] The rats are killed on day 24 post-ethidium bromide treatment for analysis of remyelination by quantitative polymerase chain reaction (qPCR) and microscopy.

In assay [3] the test system is demyelination in C57BL/6J mice. In words: Cuprizone/rapamycin (CR) chronic 12-week mouse model of toxic demyelination. The format is in vivo. The following applies: 12 weeks CR; for # of Myelinated Axons per CC unit (PPD staining, corpus callosum) / % Area of Myelin Cortex (PLP staining) / % Area of Myelin Hippocampus (PLP staining): then 10 mg/kg/d PO daily for 6 weeks, with or without 20 ng/g thyroxine SC. As to the method: Mice are fed a cuprizone-containing diet and injected with rapamycin daily (CR regimen) for 12 weeks to induce demyelination. One group of animals is sacrificed at 12 weeks to evaluate demyelination. […] At the end of the study, all mice are sacrificed and one or more of the following parameters are determined: (1) PPD (p-phenylenediamine) staining to visualize and quantify myelinated axons in corpus callosum to assess demyelination and remyelination in white matter; (2) myelin proteolipid protein (PLP) immunostaining to visualize and quantify myelin in hippocampus to assess demyelination and remyelination in grey matter (hippocampus); (3) PLP immunostaining to visualize and quantify myelin in cortex to assess demyelination and remyelination in grey matter (cortex); (4) PDGFRα immunostaining to visualize and quantify OPCs in corpus callosum; (5) GSTpi immunostaining to visualize and quantify oligodendrocytes in corpus callosum; (6) Iba1 (ionized calcium-binding adapter molecule 1) and/or Mac-2 (galectin-3) immunostaining to visualize and quantify total and activated microglia in corpus callosum; (7) GFAP (glial fibrillary acidic protein) immunostaining to visualize and quantify astrocytes in corpus callosum To assess astroglial activation; and (8) 3D-electron microscopy in corpus callosum to assess ratio of myelinated and non-myelinated axons, internodal length, G-ratio, mitochondrial changes, etc.
The animals (8 week-old male C57BL/6J mice) are subjected to cuprizone diet plus rapamycin injections (CR) for 12 weeks to induce demyelination in white matter (CC, corpus callosum). After 12 weeks, CR is discontinued and subsets of animals are treated daily for 6 weeks with one of the following treatment regimens:
All animals are sacrificed after 12 weeks of CR (Group 7) or after further 6 weeks of treatment (Groups 1-6) to evaluate myelin in white matter (corpus callosum) and gray matter (hippocampus and cortex). In addition, the size of myelinated axons are quantified and the large myelinated axons are further assessed by 3D-electron microscopy (3D-EM).
A total of 92 mice are included in the study. Eight week-old male C57BL/6J mice are placed on a rodent chow (Harlan) containing 0.3% cuprizone for 12 weeks. These mice are also injected with rapamycin (approximately 10 mg/kg body weight at the volume of 0.1 ml, IP) daily for 12 weeks. Eight mice are maintained on a normal diet. The weight of the animals is monitored on a weekly-basis.
The drug is reconstituted in vehicle (DMSO/PBS/Tween) and fresh drug is made up once a week and administered orally once daily. […] Similarly, subgroups (n=12) of CR treated mice are treated with oral IRX4204EE and subcutaneous thyroxine vehicle (Group 5) or oral IRX4204EE and subcutaneous thyroxine (Group 6) at the indicated doses.
Epon-PPD stained sections of corpus callosum are evaluated in bright field at 10X, 20X and 63X (oil objective). A total of 4 images (63X) per animal are collected in the region of interest (ROI), which is a specific region between the rostral corpus callosum and the junction of the fornix. The images outside the ROI are not scored. The images are then evaluated using NIH ImageJ (aka. Fiji) to identify and count myelinated axons in the region of interest. The numbers of PPD-stained myelinated axons in all of the counting boxes for each image are counted. Using the polygon selection tool, the margins of the corpus callosum in each slice are identified and ImageJ is then used to calculate the total area of the CC in that slice. The total number of myelinated axons in a specific area of the corpus callosum is then calculated by dividing the total area of the CC by the total area of the counting boxes and multiplying by the combined number of myelinated axons that are counted in all of the counting boxes for each image. […]

The test system of a further assay is Treg cells. In words: Treg cell differentiation in in vitro cell culture. The class given is cell-based.
Where [4] appears, read: 50 µg i.p. every other day from day 7, n=6.
The mark [5] stands for this setting: 10 mg/kg/day oral gavage, day 7 to day 21.

In the case of `CC(/C=C/[C@@H]1C[C@]1(C)c1ccc2c(c1)C(C)(C)CCC2(C)C)=C\C(=O)O` [IRX4204, 3,7-dimethyl-6(S),7(S)-methano,7-[1,1,4,4-tetramethyl-1,2,3,4-tetrahydronaphth-7-yl]2(E),4(E) heptadienoic acid], in assay [1], the “symptoms of EAE (disease severity score)” value is reported as “significantly reduces the symptoms of EAE”. The “symptoms of EAE in SJL mice” value in the assay on EAE in SJL mice is “significantly reduces the symptoms of EAE”. In the assay with EAE in SJL mice (setting [4]), the “Death from Disease” value was 0/6, the “Disease Incidence” value is 4/6 and the “Mean Maximum Score” value is 1.5 ± 1.4. Moreover, in assay [2] (setting [5]), the “Mbp expression (real-time qPCR of lesion samples)” value is reported as “increase in Mbp expression”, the “Nkx2.2+ oligodendrocyte precursor cells (OPCs) in lesions” value was “increased”, the “Pdgfra expression (real-time qPCR of lesion samples)” value is recorded as “increase in Pdgfra expression” and the “density of CC1+ differentiated oligodendrocytes in lesions” value is “increased”. Besides, in assay [2] (setting [5]), the “density of Olig2+ oligodendrocyte lineage cells in lesions” value was “increased” and the “remyelinated axons (ultrastructural analysis of CCP lesions)” value is given as “more remyelinated axons”. In assay [3], the “# of Myelinated Axons per CC unit (PPD staining, corpus callosum)” value was determined as 1570; the “% Area of Myelin Cortex (PLP staining)” value was 48%; the “% Area of Myelin Hippocampus (PLP staining)” value is recorded as 38%. In assay [3] (then 6 weeks treatment), the “average diameter of myelinated axons” value is “approximately 0.9 µm” and the “increase in myelin volume compared to vehicles control” value is “approximately 15%”. In addition, the “formation of Treg cells” value in the assay with Treg cells (1 nM) was “substantially enhances the formation of Treg cells”.

`CCOC(=O)/C=C(C)/C=C/[C@@H]1C[C@]1(C)c1ccc2c(c1)C(C)(C)CCC2(C)C` [IRX4204EE, 3,7-dimethyl-6(S),7(S)-methano,7-[1,1,4,4-tetramethyl-1,2,3,4-tetrahydronaphth-7-yl]2(E),4(E) heptadienoic ethyl ester]: the “symptoms of EAE (disease severity score)” value in assay [1] is on record as “more effective than IRX4204”. Also, the “symptoms of EAE in SJL mice” value in the assay on EAE in SJL mice was “greater efficacy than IRX4204”. The “activity in focal toxin rat model relative to IRX4204 (same end-points)” value in assay [2] (rat, in vivo) is given as “somewhat more active than the free acid”. In assay [3], the “# of Myelinated Axons per CC unit (PPD staining, corpus callosum)” value amounted to 4300; the “% Area of Myelin Cortex (PLP staining)” value was 85%; the “% Area of Myelin Hippocampus (PLP staining)” value was 68%. Moreover, in assay [3] (then 6 weeks treatment), the “increase in myelin volume compared to vehicles control” value is given as “approximately 25%”; the “remyelination and neuroprotection activity relative to IRX4204 groups” value is “greater remyelination and neuroprotection activity than the corresponding IRX4204 treated groups”. Moreover, the “promoting the differentiation of Treg cells, relative to parent form” value with Treg cells (in vitro cell culture) was “less active than its parent form”.
